Patent US8513260B2, “Pyrazinylpyrazoles” (Bayer CropScience AG, priority 2009, dated 2013)

Assays:
[1] = logP by HPLC on reversed-phase columns (C 18), EEC Directive 79/831 Annex V.A8; type: physicochemical; settings: reversed-phase C18 HPLC column, pH 2.7, * LC-MS, acidic range pH 2.7, 0.1% aqueous formic acid and acetonitrile; read-out: log P
From the text: [table] The calibration is effected with unbranched alkan-2-ones (having 3 to 16 carbon atoms) with known logP values (logP values determined on the basis of the retention times by linear interpolation between two successive alkanones).

[2] = system: adult engorged Boophilus microplus females of the SP-resistant Parkhurst strain; assay: Boophilus microplus (dip); type: in vivo; settings: after 7 days, laying of fertile eggs; for pest or weed control at 100 ppm: Rhipicephalus microplus, 168 h, read-out: efficacy; for efficacy: 100 ppm
Procedure: Boophilus microplus (dip)
Test animals: adult engorged Boophilus microplus females of the SP-resistant Parkhurst strain
Solvent: dimethyl sulphoxide
10 mg of active ingredient are dissolved in 0.5 ml of dimethyl sulphoxide. For the purpose of preparing a suitable formulation, the active ingredient solution is diluted with water to the concentration desired in each case. This active ingredient preparation is pipetted into tubes. 8-10 ticks are transferred into a further tube with holes. The tube is immersed into the active ingredient formulation, and all ticks are completely wetted. After the liquid has run out, the ticks are transferred onto filter discs in plastic dishes and stored in a climate-controlled room. The activity is assessed after 7 days by laying of fertile eggs. Eggs whose fertility is not outwardly visible are stored in glass tubes in a climate-controlled cabinet until the larvae hatch. Efficacy of 100% means that none of the ticks has laid any fertile eggs.

Boophilus microplus = Boophilus microplus test (BOOPMI injection); type: in vivo; settings: 20 μg animal, injection into the abdomen, after 7 days, laying of fertile eggs; for pest or weed control at 0.02 mg: Rhipicephalus microplus, 168 h, read-out: efficacy
Procedure: Boophilus microplus Test (BOOPMI Injection) Solvent: dimethyl sulphoxide To prepare an appropriate active ingredient formulation, 10 mg of active ingredient are mixed with 0.5 ml of solvent and the concentrate is diluted with solvent to the desired concentration. The active ingredient solution is injected into the abdomen (Boophilus microplus), and the animals are transferred into dishes and stored in a climate-controlled room. The efficacy is assessed by laying of fertile eggs. After 7 days, the efficacy in % is determined. 100% means that none of the ticks has laid any fertile eggs.

[3] = system: unfed adult fleas (Ctenocephalides felis); assay: Ctenocephalides felis test (CTECFE); type: in vivo; settings: 100 ppm in citrated cow's blood, after 2 days; for pest or weed control at 100 ppm: Ctenocephalides felis, 48 h, read-out: efficacy (kill)
Procedure: Ctenocephalides felis Test ([…]) Solvent: 1 part by weight of dimethyl sulphoxide For the purpose of preparing an appropriate active ingredient formulation, 10 mg of active ingredient are mixed with 0.5 ml of dimethyl sulphoxide. A portion of the concentrate is diluted with citrated cow's blood and the desired concentration is established. About 20 unfed adult fleas (Ctenocephalides felis) are introduced into a chamber closed at the top and bottom with gauze. A metal cylinder, the bottom of which is closed with Parafilm, is placed onto the chamber. The cylinder contains the blood/active ingredient preparation, which can be imbibed by the fleas through the Parafilm membrane. After 2 days, the kill in % is determined. 100% means that all fleas have been killed; 0% means that none of the fleas have been killed.

Lucilia cuprina larvae = assay: Lucilia cuprina test (LUCICU); type: in vivo; settings: 48 h, treated horse meat, after 2 days, read-out: efficacy (kill)
Procedure: (§1) Lucilia cuprina Test (LUCICU) Solvent: dimethyl sulphoxide To prepare an appropriate active ingredient formulation, 10 mg of active ingredient are mixed with 0.5 ml of dimethyl sulphoxide and the concentrate is diluted with water to the desired concentration. Vessels containing horse meat treated with the active ingredient preparation of the desired concentration are populated with about 20 Lucilia cuprina larvae. After 2 days, the kill in % is determined. 100% means that all of the larvae have been killed; 0% means that none of the larvae have been killed.

[4] = system: green peach aphid (Myzus persicae); assay: Myzus test (MYZUPE spray treatment); type: in vivo; settings: Chinese cabbage discs, after 6 days; for efficacy: 500 g/ha
Procedure: Myzus Test (MYZUPE Spray Treatment) Solvent: 78 parts by weight of acetone • • 1.5 parts by weight of dimethylformamide Emulsifier: 0.5 part by weight of alkylaryl polyglycol ether To prepare an appropriate active ingredient preparation, 1 part by weight of active ingredient is mixed with the stated amounts of solvent and emulsifier, and the concentrate is diluted with emulsifier-containing water to the desired concentration. Discs of Chinese cabbage (Brassica pekinensis) infested by all stages of the green peach aphid (Myzus persicae) are sprayed with an active ingredient preparation of the desired concentration. After 6 days, the efficacy in % is determined. 100% means that all of the aphids have been destroyed; 0% means that none of the aphids have been destroyed.

[5] = system: larvae of the mustard beetle (Phaedon cochleariae); assay: Phaedon test (PHAECO spray treatment); type: in vivo; settings: Chinese cabbage discs, after 7 days; for pest or weed control at 500 g/ha: Phaedon cochleariae, 168 h, read-out: efficacy; for efficacy: 500 g/ha
Procedure: Phaedon Test ([…] Spray Treatment) Solvent: 78.0 parts by weight of acetone • • 1.5 parts by weight of dimethylformamide Emulsifier: 0.5 part by weight of alkylaryl polyglycol ether To prepare an appropriate active ingredient preparation, 1 part by weight of active ingredient is mixed with the stated amounts of solvent and emulsifier, and the concentrate is diluted with emulsifier-containing water to the desired concentration. Discs of Chinese cabbage (Brassica pekinensis) are sprayed with an active ingredient preparation of the desired concentration and, after drying, populated with larvae of the mustard beetle (Phaedon cochleariae). After 7 days, the efficacy in % is determined. 100% means that all beetle larvae have been killed; 0% means that none of the beetle larvae have been killed.

[6] = system: caterpillars of the armyworm (Spodoptera frugiperda); assay: Spodoptera frugiperda test (SPODFR spray treatment); type: in vivo; settings: maize leaf discs, after 7 days; for pest or weed control at 500 g/ha: Spodoptera frugiperda, foliar, 168 h, read-out: efficacy; for efficacy: 500 g/ha
Procedure: Spodoptera frugiperda Test (SPODFR Spray Treatment) Solvent: 78.0 parts by weight of acetone • • 1.5 parts by weight of dimethylformamide Emulsifier: 0.5 part by weight of alkylaryl polyglycol ether To prepare an appropriate active ingredient preparation, 1 part by weight of active ingredient is mixed with the stated amounts of solvent and emulsifier, and the concentrate is diluted with emulsifier-containing water to the desired concentration. Discs of maize leaves (Zea mays) are sprayed with an active ingredient preparation of the desired concentration and, after drying, populated with caterpillars of the armyworm (Spodoptera frugiperda). After 7 days, the efficacy in % is determined. 100% means that all caterpillars have been killed; 0% means that none of the caterpillars have been killed.

[7] = system: red spider mite (Tetranychus urticae); assay: Tetranychus test, OP-resistant (TETRUR spray treatment); type: in vivo; settings: bean leaf discs, after 6 days; for pest or weed control at 500 g/ha: Tetranychus urticae, foliar, 144 h, read-out: efficacy
Procedure: Tetranychus Test, OP-Resistant (TETRUR Spray Treatment)
Solvent: 78.0 parts by weight of acetone • • 1.5 parts by weight of dimethylformamide
Emulsifier: 0.5 part by weight of alkylaryl polyglycol ether
To prepare an appropriate active ingredient preparation, 1 part by weight of active ingredient is mixed with the stated amounts of solvent and emulsifier, and the concentrate is diluted with emulsifier-containing water to the desired concentration. Discs of bean leaves (Phaseolus vulgaris) infested by all stages of the red spider mite (Tetranychus urticae) are sprayed with an active ingredient preparation of the desired concentration. After 6 days, the efficacy in % is determined. 100% means that all spider mites have been killed; 0% means that none of the spider mites have been killed.

adult Musca domestica = assay: Musca domestica test; type: in vivo; settings: after 2 days
Procedure: as §1, with “Musca domestica” for “Lucilia cuprina”, “Test” for “Test (LUCICU)”, “a sponge” for “horse meat”, “adult Musca domestica.” for “about 20 Lucilia cuprina larvae.”, “flies” for “larvae”

| chromatographic logP [1] | SMILES | pest or weed control at 100 ppm [2] | pest or weed control at 0.02 mg (Boophilus microplus) | pest or weed control at 100 ppm [3] | pest or weed control at 100 ppm (Lucilia cuprina larvae) | pest or weed control at 500 g/ha ([4]; Myzus persicae, 144 h, read-out: efficacy) | pest or weed control at 500 g/ha [5] | pest or weed control at 500 g/ha [6] | pest or weed control at 500 g/ha ([7]; 500 g/ha) | efficacy [2] | efficacy (Boophilus microplus) | efficacy (kill) [3] | efficacy (kill) (adult Musca domestica; 20 ppm) | efficacy [5] | efficacy [6] | efficacy ([7]; 100 g/ha) | efficacy (kill) (adult Musca domestica; 100 ppm) | efficacy [4] | efficacy ([7]; 500 g/ha) |
| --- | --- | --- | --- | --- | --- | --- | --- | --- | --- | --- | --- | --- | --- | --- | --- | --- | --- | --- | --- |
| 4.1 | COc1nccnc1-n1nc(C(F)(F)F)c(-c2cc(Br)cc(Br)c2)c1N [Ex. 22] | 95% | 100% | 95% | 100% | 100% | 100% | 100% | 100% |  |  |  |  |  |  |  |  |  |  |
|  | COc1nccnc1-n1nc(C(F)(F)F)c(-c2cc(Cl)c3c(c2)OCCO3)c1N [Ex. 133] |  |  |  |  |  |  |  |  | 95% | 100% | 100% | 80% | 100% | 100% | 90% |  |  |  |
| 3.22 | COc1cc(-c2c(C(F)(F)F)nn(-c3nccnc3OC)c2N)cc(Cl)c1OC [Ex. 141] |  | 100% | 100% | 100% |  | 100% | 100% | 100% |  |  |  | 80% |  |  |  |  |  |  |
| 3.27 | COc1nccnc1-n1nc(C(F)(F)F)c(-c2cc(I)c3c(c2)OCO3)c1N [Ex. 139] |  | 100% | 100% | 100% |  | 100% | 100% | 80% |  |  |  |  |  |  |  |  |  |  |
|  | COc1nccnc1-n1nc(C(F)(F)C(F)(F)OC)c(-c2cc(Cl)cc(C(F)(F)F)c2)c1N [Ex. 47] |  |  |  |  |  |  |  |  | 100% | 100% | 100% |  | 100% | 100% |  | 80% | 80% | 100% |
| 3.8 | COc1cc(-c2c(C(F)(F)C(F)(F)F)nn(-c3nccnc3OC)c2N)cc(Cl)c1OC [Ex. 51] | 100% | 100% | 100% | 100% |  | 100% | 100% | 80% |  |  |  |  |  |  |  |  |  |  |
|  | COc1nccnc1-n1nc(C(F)(F)Cl)c(-c2cc(Cl)cc(C(F)(F)F)c2)c1N [Ex. 17] |  |  |  |  |  |  |  |  | 100% | 100% | 100% |  | 100% | 100% |  | 100% | 100% | 100% |
|  | C=Cc1nn(-c2nccnc2OC)c(N)c1-c1cc(Cl)cc(Cl)c1 [Ex. 8] |  |  |  |  |  |  |  |  | 90% | 100% |  |  |  |  |  |  | 100% |  |
|  | COc1nccnc1-n1nc(C(F)(F)F)c(-c2ccc(Cl)c(C(F)(F)F)c2)c1N [Ex. 18] |  |  |  |  |  |  |  |  | 100% | 100% |  |  | 100% | 83% |  |  | 90% | 100% |
|  | COc1nccnc1-n1nc(C(F)(F)C(F)(F)F)c(-c2cc(Cl)cc(C(F)(F)F)c2)c1N [Ex. 15] |  |  |  |  |  |  |  |  | 100% | 100% | 95% |  | 100% | 100% |  | 95% | 100% | 100% |
|  | COc1nccnc1-n1nc(C(C)(F)F)c(-c2ccc(Cl)c(C(F)(F)F)c2)c1N [Ex. 20] |  |  |  |  |  |  |  |  | 100% | 100% |  |  | 100% | 100% |  |  | 100% | 100% |
|  | COc1nccnc1-n1nc(C(F)(F)F)c(-c2cc(Br)c3c(c2)OCCO3)c1N [Ex. 132] |  |  |  |  |  |  |  |  | 100% | 100% | 100% |  | 100% | 100% |  | 80% |  | 80% |
